Test results from US6653354B2, “NMDA antagonist comprising xenon” (priority 1999, dated 2003).

How the values were obtained:
[1] = system: c Fos expression in arcuate nucleus of hypothalamus; test: c Fos expression in arcuate nucleus after NMA (inhibition of synaptic plasticity in vivo); design: species or system Sprague Dawley female adult rats; conditions: 75% Xe + NMA 100 mg/kg s.c.
Text: With exposure to NMA neuronal activation is enhanced (E vs A) which is indicative of synaptic plasticity. In the presence of both Xenon (D) and MK 801 (B), synaptic plasticity induced by NMA is inhibited. […] This is sometimes referred to as long term potentiation, an example of synaptic plasticity. […] The attenuation of c Fos expression is a reflection of the inhibition of synaptic plasticity.

[2] = system: co-culture injured by oxygen/glucose or oxygen deprivation; test: Oxygen/glucose or oxygen deprivation injury in co-culture (LDH release); assay type: cell-based, mouse; conditions: 75 min replacement of O2 with N2; xenon replacing N2
Procedure: Anoxia was performed on a co-culture by a 75 min replacement of O2 with N2. The xenon and N2 concentrations were changed reciprocally such that their aggregate was 95% of one atmosphere (5% CO2 in either group). After 24 h the culture medium was harvested and assayed for LDH. Data are expressed as the % mean±SD (n=3) of LDH released into the medium over the 24 h period normalised to LDH release when N2 alone is present.
(§1) Dissociated murine cortical cell cultures were prepared using whole cerebral neocortices from fetal mice (14-17 days of gestation). Cortical glial cell cultures were prepared from early postnatal mice. After halting non-neuronal cell division with cytosine arabinoside the surviving cortical neuronal cells were plated onto the glial cell background and co-cultured.

[3] = system: neurons of arcuate nucleus of hypothalamus; test: NMA-induced neuron injury in the arcuate nucleus (neuroprotection in vivo); design: species or system Sprague Dawley female adult rats; conditions: 75% Xe + NMA 100 mg/kg s.c.
Procedure: It can be seen that NMA caused neuronal degeneration and vacuoulated swelling in the neuropil giving a spongiform appearance in the arcuate nucleus (E). The degenerated neuron has a pyknotic nucleus, which look like “bulls' eyes” because of oedematous swelling of the cytoplasmic compartment.
Rats were injected with NMA (100 mg/kg) sc and sacrificed 4 hours later after exposure to air (“NMA”; n=7) or xenon 75% (“75% xenon+NMA”; n=8). (For comparison the effect of MK801, the NMDA antagonist, is also shown). The arcuate nucleus was removed and sectioned and stained with cresyl violet. Control animals (“PS”; n=6) had neither NMA nor xenon administered. Data are reflected as either the mean of three sections/animal (upper) or the sum (lower) of degenerated neurons in both arcuate nuclei.

[4] = system: cortical neuronal-glial co-culture injured with NMDA; test: NMDA-induced neuronal injury in neuronal-glial co-culture (LDH release); assay type: cell-based, mouse
Procedure: as §1
15 days after originally harvesting the foetal cortical cells, the co-culture plates were exposed at room temperature to N-methyl,D-aspartate (NMDA), 10-1,000 μM, in a control salt solution (CCS) for 10 minutes. After carefully washing out with CCS, the cells were incubated for 6-24 hours in a Eagle's minimal essential medium free of glutamate or lactate dehydrogenase (LDH) but supplemented with glucose 25 mM, and NaHCO3 38 mM at 37° C. in humidified CO2 (5%) atmosphere. The degree of injury was determined by measuring the LDH released into the medium. A dose-response curve of NMDA-induced injury is shown in FIG. 10, as described hereinbefore.
75% of one atmosphere of xenon was delivered to the cells during and after exposure to a 750 μM NMDA, a concentration which produces a near maximal injury. The degree of injury was determined by measuring the LDH released into the medium (after correcting for “baseline” LDH release). Xenon reduced the injury produced by NMDA by more than 30%; when xenon was continued after NMDA exposure, the injury was further reduced by more than 55%. The results of the protective effect of xenon are illustrated in FIG. 12, as described hereinbefore.

[5] = system: humans; test: MAC / anaesthetic EC50 in humans; assay type: in vivo; conditions: 37° C.
Procedure: The gaseous concentration of xenon which prevents a response to a painful stimulus (i.e. MAC) appears to vary among species, being 71% atm in humans (Cullen SC et al, Anesthesiology 1969, 31:305-309), 98% atm in rhesus monkeys (Whitehurst S L et al, J. Neurosurg. Anesthesiol. 1994, 6:275-279) and 161% atm in rats (Koblin D D et al, Anesth. Analg. 1998, 87:419-424). When these values are converted to free aqueous concentrations at 37° C. (Franks N P et al, Br. J. Anaesth. 1993, 71:65-76; Franks N P et al, Anesthesiology, 1996, 84:716-720) using an Ostwald water/gas partition coefficient of 0.0887 (Weathersby P K et al, Undersea Biomed. Res. 1980, 7:277-296), the values obtained are 2.5 mM, 3.4 mM and 5.6 mM for humans, monkeys and rats respectively, with the average value being 3.8 mM. For the experiments described herein, performed at room temperature, the concentration of xenon present in the standard test solution was 3.4 mM. […] This is illustrated with representative traces in FIG. 2.

In the case of `[Xe]` [xenon], the “synaptic plasticity induced by NMA (c Fos expression)” value [1] is reported as “is inhibited”, the “protection against injury induced by oxygen/glucose or oxygen alone deprivation (LDH release over 24 h)” value [2] is reported as “dose-dependent protective effect” and the “NMA-induced neuronal injury (cresyl fast violet histology)” value [3] is reported as “effective in reducing this injury”. For the same molecule, the “protection against excitotoxicity (% of LDH released in the absence of xenon)” value ([4]; 250 μM NMDA for 10 minutes, low (sub-anaesthetic) concentrations of xenon, LDH after 6 hours) was “Highly significant protection”, the “excitotoxic injury (LDH release, normalised)” value ([4]; 250 μM NMDA, 75% xenon) was “greatly reduced” and the percentage of neuroprotection ([4]; 75% (atm.) xenon, after 6 hours, 10 minute exposure to 250 μM NMDA) was 60%. For the same molecule, the “reduction of the injury produced by NMDA (LDH release)” value ([4]; 75% of one atmosphere xenon during exposure to 750 μM NMDA) was “more than 30%”, the “reduction of the injury produced by NMDA (LDH release)” value ([4]; 75% xenon continued after 750 μM NMDA exposure) was “more than 55%” and the “MAC converted to free aqueous concentration” value [5] was 2.5 mM.
